# Reference: patent publication US20210161868A1, “ANTI-INFLAMMATORY THERAPY IN ARRHYTHMOGENIC CARDIOMYOPATHY (ACM)” (Beth Israel Deaconess Medical Center, Inc., priority 2018, published 2021)
# “Also recorded” adds a separate entry of the source.
# Experiments:
# [1] = tested on: neonatal rat ventricular myocytes (NRVMs) expressing JUP^2157del2; assay: ACM features (protein distribution, immunofluorescence) in NRVMs expressing mutant plakoglobin; assay type: cell-based; parameters: pattern of distribution of plakoglobin, Cx43 and GSK3β: dose or concentration left out as unconfirmed
# From the text: All animal studies were in full compliance with policies of Beth Israel Deaconess Medical Center, Johns Hopkins School of Medicine and St. George's University of London. They also conformed to the Guide for the Care and Use of Laboratory Animals from the National Institutes of Health (NIH publication no. 85-23, revised 1996). In vitro studies involved transfection of cultured neonatal rat ventricular myocytes with a mutant allele of the desmosomal protein plakoglobin (2157de12) as previously described.^15 In vivo studies were performed in mice with homozygous knock-in of a mutant form of Dsg2, the gene encoding the desmosomal cadherin desmoglein-2 (Dsg2^mut/mut mice) as previously described.^6 This mutation entails loss of exons 4 and 5 which causes a frameshift and premature termination of translation.
# (§1) Primary cultures were prepared from disaggregated ventricles of 1-day-old Wistar rat pups (Charles River) as previously described.^15 Cell suspensions were pre-plated to reduce fibroblast content, placed in collagen-coated chamber slides at a density of 2.4×10^5 cells/cm^2, and grown for 4 days at 37° C. in M199 medium (GIBCO) (supplemented with penicillin, 20 U/mL; streptomycin, 20 μg/mL; 10% neonatal calf serum and 0.1 mM bromodeoxyuridine) in a humidified atmosphere containing 1% CO2. Epinephrine (0.01 μmol/mL) was added during the first 24 hours of culture. […]
# [2] = tested on: neonatal rat ventricular myocytes (NRVMs) expressing JUP^2157del2; assay: In vitro cytokine assay of NRVM culture media; assay type: cell-based; conditions: Bay11-7082 5 μM, 24 hours
# Experimental: as §1, with “culture. At 24 hours post-seeding, cultures were transfected with an adenoviral construct expressing plakoglobin (JUP) with the 2157del2 mutation, as previously reported.^15 At 24 hours post-transfection, cultures were treated with Bay11-7082 (Sigma, […]) for an additional 24 hours.” for “culture.”
# Culture media from cells expressing 2157del2 plakoglobin in the presence or absence of Bay11-7082 (5 μM, 24 hours) were collected after 96 hours in culture, mixed with a cocktail of biotinylated detection antibodies, and incubated with nitrocellulose membranes spotted in duplicate with control and capture antibodies (R&D Systems). […] The cytokine array specifically detected rat cytokines whereas cells were grown in media containing neonatal bovine serum. […]
structure (smiles),measurement,setting,value
Cc1ccc(S(=O)(=O)/C=C/C#N)cc1 [Bay 11-7082],"in vitro readouts of the ACM phenotype (plakoglobin, Cx43, apoptosis, cytokines)",[1]; NRVMs expressing mutant plakoglobin,blocked; also recorded: completely reversed
same,"pattern of distribution of plakoglobin, Cx43 and GSK3β","[1]; transfected NRVMs, Bay11-7082, 24 hours",normalized; also recorded: indistinguishable from that seen in control
same,accumulation of cytokines and chemoattractants in culture media,[2],reduces; also recorded: greatly reduced
